Data reported in patent publication US20120277211A1, “METHODS AND COMPOSITIONS FOR THE TREATMENT OF PSYCHOTIC DISORDERS THROUGH THE IDENTIFICATION OF THE SULT4A1-1 HAPLOTYPE” (priority 2009, published 2012).
Marks after values point to notes of the source that are not given here.

Columns and labels:
[1] = system: Caucasian schizophrenia patients; assay: CATIE Phase I: change in total PANSS (LOCF) by SULT4A1-1 haplotype status, Caucasians; format: in vivo, human; details: for Number of individuals with change in total PANSS ≦−20% (responders) / Number of individuals with change in total PANSS ≧−20% (non-responders) / Responders: CATIE Caucasians, LOCF; for Responders: change in PANSS ≦−20%; for Effect size: olanzapine SULT4A1-1+ vs comparator group / Mean difference (95% CI) in delta PANSS: olanzapine SULT4A1-1+ minus comparator group: comparator = labelled drug in SULT4A1-1+ patients
Description: There are several different metrics for quantifying response in clinical trials of antipsychotic medications. The most commonly used psychometric instrument is the Positive and Negative Syndrome Scale (PANSS), a 30-item semi-quantitative instrument scored by clinical professionals (Kay et al., 1987). The greater the decrease in PANSS score, the better the clinical response. The most direct measure of clinical response is absolute change in PANSS score. In addition to absolute change, the improvement is often reported as a percentage change from baseline PANSS score.
A decrease of at least 20% in total PANSS is one commonly used threshold for response (Leucht et al., 2009).
The design of the CATIE study has been described in detail by others (Lieberman et al., 2005; Stroup et al., 2003). […] A total of 738 subjects consented to provide DNA for genetic study. […] Retrospective genetic analyses, judged to be exempt from human studies requirements by an IRB, were conducted in the current study.
All tested patients were studied using well established clinical endpoints comparing baseline, intermediate, and last observation carried forward (LOCF) for the PANSS scores using CATIE data. LOCF analysis is a commonly used clinical endpoint for clinical trials for neuropsychiatric drugs, with changes in PANSS scores of between negative 20% and negative 30% used as typical endpoints to indicate clinically significant response (Leucht et al., 2009). To remove time on drug as a variable for the CATIE trial, analysis was limited to only those patients who were randomized to a different drug following the initial washout period (drug switchers).
The CATIE clinical data set included baseline PANSS scores based on clinical assessments prior to initiation of the assigned therapy, but following the washout period for any patients previously on antipsychotic medication. Follow up PANSS data for the CATIE trial were collected at each visit as described in detail by others (Stroup et al., 2003).
Since follow-up on subjects was not done at uniform time intervals, analysis was done using the last observation for each patient in treatment Phase I of the trial as the measure of response (last observation carried forward, LOCF). Main effect and interaction terms between the SULT4A1-1 haplotype and drug therapy were included in the linear model. A pre-determined set of contrasts for differences in percent change PANSS by haplotype within each drug therapy (three comparisons) and by drug therapy within each haplotype (six comparisons) were evaluated, with adjustment for multiple-comparisons using the step-up false-discovery rate (FDR) controlling procedure (Benjamini and Hochberg, 1995). A sub-analysis omitting those patients who were randomized to the same antipsychotic drug therapy was also conducted.

[2] = system: Caucasian schizophrenia patients; assay: CATIE: hospitalization due to exacerbation of psychosis by SULT4A1-1 status; format: in vivo, human
Description: To assess if SULT4A1-1 status impacts the risk of hospitalization in Caucasians, the inventors assigned SULT4A1-1 status to each CATIE subject and evaluated hospitalization events due to exacerbation of psychosis. For this analysis, the inventors assigned a dichotomous value (positive or negative) for hospitalization status to subjects in each phase of the trial based on only the first hospitalization event for a given patient in that phase. Patients participating in Phases 1, 2, and/or 3 were included in the totals for the appropriate drug.
A Kaplan-Meier survival analysis was performed to determine whether there was a difference between the survival (hospitalization) rates for the SULT4A1-1 negative and SULT4A1-1 positive patient populations treated with each of the atypical antipsychotics. Survival plots model the fraction of the population that survived (i.e., no hospitalization event) as a function of time.

schizophrenia patients = assay: CATIE: months of successful treatment measured by the CGI scale (TMSUCC1); format: in vivo, human
Description: The CATIE clinical data set included Clinical Global Impression (CGI) Scale, an observer-provided assessment of the psychiatric health of the patient (Stroup et al., 2003; Guy 1976). Patients are rated with the CGI Scale from 1 to 7, with higher scores indicating greater severity of illness. The CATIE study provided a response variable that measured the time (in months) of successful treatment as measured by the CGI scale (“TMSUCC1” in the CATIE data).

[3] = system: Caucasian schizophrenia patients; assay: CATIE: time to discontinuation for all causes by SULT4A1-1 status; format: in vivo, human
Description: The primary endpoint for the CATIE study was time to discontinuation for all causes (Lieberman et al., 2005). Thus the inventors evaluated the effect of SULT41-1 status on this important parameter.

[4] = system: African American schizophrenia patients; assay: CATIE: change in total PANSS (LOCF) by SULT4A1-1 haplotype status, African Americans; format: in vivo, human; details: for Number of individuals with change in total PANSS ≦−20% (responders) / Number of individuals with change in total PANSS ≧−20% (non-responders): LOCF
Experimental: The design of the CATIE study has been described in detail by others (Lieberman et al., 2005; Stroup et al., 2003). […] A total of 738 subjects consented to provide DNA for genetic study. […] Retrospective genetic analyses, judged to be exempt from human studies requirements by an IRB, were conducted in the current study. All tested patients were studied using well established clinical endpoints comparing baseline, intermediate, and last observation carried forward (LOCF) for the PANSS scores using CATIE data. […] To remove time on drug as a variable for the CATIE trial, analysis was limited to only those patients who were randomized to a different drug following the initial washout period (drug switchers).

[5] = system: unsegmented patient populations; details: cited from earlier work
[6] = SULT4A1-1 positive, randomized to a different drug
[7] = Unsegmented, Phases 1, 2 and/or 3, first event

Row | Compound | DELTA PANSS % (mean change in PANSS score from baseline to LOCF) ([1]; SULT4A1-1 negative) | Number of individuals with change in total PANSS ≦−20% (responders) ([1]; SULT4A1-1 negative) | Number of individuals with change in total PANSS ≧−20% (non-responders) ([1]; SULT4A1-1 negative) | Responders ([1]; SULT4A1-1 negative) [%**] | DELTA PANSS % (mean change in PANSS score from baseline to LOCF) ([1]; SULT4A1-1 positive) | Number of individuals with change in total PANSS ≧−20% (non-responders) ([1]; SULT4A1-1 positive) | Number of individuals with change in total PANSS ≦−20% (responders) [1, 6] | Responders ([1]; SULT4A1-1 positive) [%] | Effect size: olanzapine SULT4A1-1+ vs comparator group [1] | Mean difference (95% CI) in delta PANSS: olanzapine SULT4A1-1+ minus comparator group [1] | HOSP, number of patients hospitalized ([2]; SULT4A1-1 negative) | HOSP, rate of hospitalization ([2]; SULT4A1-1 negative) [%] | HOSP, number of patients hospitalized ([2]; SULT4A1-1 positive) | HOSP, rate of hospitalization ([2]; SULT4A1-1 positive) [%] | HOSP, rate of hospitalization ([2]; Unsegmented) [%] | HOSP, number of patients hospitalized [2, 7] | Length of successful treatment (CGI Months), Mean (schizophrenia patients; SULT4A1-1 negative) [Months] | Length of successful treatment (CGI Months), Mean (schizophrenia patients; SULT4A1-1 positive) | Length of successful treatment (CGI Months), Mean (schizophrenia patients; Unsegmented) [Months] | Time to discontinuation, mean ([3]; SULT4A1-1 negative) | further results
1 | OCCN1CCN(CCCN2c3ccccc3Sc3ccc(Cl)cc32)CC1 [Perphenazine] | −3*** % | 16 | 47 | 25.4 | −10* % | 9 | 5 | 35.7 | 0.68 | −14.2 (−29.8 to 1.4) | 9 | 13.4 | 1 | 7.1 | 12.3 | 10 | 7.03 | 5.29 Months | 6.72 | 10.6* Months | Time to discontinuation, mean ([3]; SULT4A1-1 positive): 7.6** Months; Responders ([4]; SULT4A1-1 negative): 27.0%; Number of individuals with change in total PANSS ≦−20% (responders) ([4]; SULT4A1-1 negative): 10; Number of individuals with change in total PANSS ≧−20% (non-responders) ([4]; SULT4A1-1 negative): 27; Responders ([4]; SULT4A1-1 positive): 0%; Number of individuals with change in total PANSS ≦−20% (responders) ([4]; SULT4A1-1 positive): 0; Number of individuals with change in total PANSS ≧−20% (non-responders) ([4]; SULT4A1-1 positive): 2
2 | O=C1Cc2cc(CCN3CCN(c4nsc5ccccc45)CC3)c(Cl)cc2N1 [Ziprasidone] | −4*** % | 6 | 32 | 15.7 | −8* % | 7 | 3 | 30.0 | 0.77 | −16.1 (−32.7 to 0.5) | 11 | 13.4 | 2 | 7.1 | 11.8 | 13 | 4.51 | 8.36^d Months | 5.36 | 8.2*** Months | Mean difference in total PANSS score between olanzapine and labelled drug, CATIE SULT4A1-1+ ([1]; SULT4A1-1+): −17.9; Mean difference in total PANSS score between olanzapine and labelled drug, CATIE SULT4A1-1− ([1]; SULT4A1-1−): −2.1; Mean difference in total PANSS score between olanzapine and labelled drug, CATIE unsegmented ([1]; Unsegmented): −4.9; Effect Size attributable to SULT4A1-1 status in CATIE ([1]; olanzapine-treated SULT4A1-1 positive versus labelled drug-treated SULT4A1-1 positive): −0.77^b; Kaplan-Meier: difference between survival (no hospitalization) rates of SULT4A1-1 negative and positive patients ([2]; per drug): not statistically significant; Effect Size vs. FGA ([5]; first generation antipsychotics, Davis et al. (2003)): −0.04; Effect Size vs. Placebo ([5]; meta-analysis, Leucht et al. (2009), negative = greater reduction in PANSS): −0.48; Mean difference in total PANSS score between olanzapine and labelled drug, Meta-analysis ([5]; unsegmented populations, Leucht et al. (2009)): −8.3; Time to discontinuation, mean ([3]; SULT4A1-1 positive): 11.7 Months; Responders ([4]; SULT4A1-1 negative): 15.4%; Number of individuals with change in total PANSS ≦−20% (responders) ([4]; SULT4A1-1 negative): 4; Number of individuals with change in total PANSS ≧−20% (non-responders) ([4]; SULT4A1-1 negative): 22; Responders ([4]; SULT4A1-1 positive): 0%; Number of individuals with change in total PANSS ≦−20% (responders) ([4]; SULT4A1-1 positive): 0; Number of individuals with change in total PANSS ≧−20% (non-responders) ([4]; SULT4A1-1 positive): 3
